Values of other authors in patent US20070105793A1, “Compositions and methods using nicotinic acid for treatment of hypercholesterolemia, hyperlipidemia nd cardiovascular disease” (priority 2005, published 2007).

How the values were obtained:
[1] = in vivo
[2] = after ingestion
[3] = tested on: β-thromboglobulin; conditions: in vivo

| Structure (SMILES) | flush [1] | impact on blood sugar [1] | time of release of niacin into the system by hydrolysis [2] | effect on β-thromboglobulin [3] |
| --- | --- | --- | --- | --- |
| O=C(O[C@H]1[C@H](OC(=O)c2cccnc2)[C@@H](OC(=O)c2cccnc2)[C@H](OC(=O)c2cccnc2)[C@@H](OC(=O)c2cccnc2)[C@H]1OC(=O)c1cccnc1)c1cccnc1 [IHN, inositol hexanicotinate] | “zero” flush | no negative impact on blood sugar | around 10 hours |  |
| O=C(O)c1cccnc1 [niacin, nicotinic acid] |  |  |  | does not have a favorable effect on β-thromboglobulin |
